{"source": "patent US20180071242A1", "about": "“SUBSTITUTED ACYLANILIDES AND METHODS OF USE THEREOF” (University of Tennessee Research Foundation, priority 2006, published 2018)", "key": {"CYP3A4": {"target": "T1, CYP3A4 (Homo sapiens, UniProt P08684)", "T1 construct": "purchased Gentest, BD Biosciences", "T1 sequence (P08684 whole entry)": "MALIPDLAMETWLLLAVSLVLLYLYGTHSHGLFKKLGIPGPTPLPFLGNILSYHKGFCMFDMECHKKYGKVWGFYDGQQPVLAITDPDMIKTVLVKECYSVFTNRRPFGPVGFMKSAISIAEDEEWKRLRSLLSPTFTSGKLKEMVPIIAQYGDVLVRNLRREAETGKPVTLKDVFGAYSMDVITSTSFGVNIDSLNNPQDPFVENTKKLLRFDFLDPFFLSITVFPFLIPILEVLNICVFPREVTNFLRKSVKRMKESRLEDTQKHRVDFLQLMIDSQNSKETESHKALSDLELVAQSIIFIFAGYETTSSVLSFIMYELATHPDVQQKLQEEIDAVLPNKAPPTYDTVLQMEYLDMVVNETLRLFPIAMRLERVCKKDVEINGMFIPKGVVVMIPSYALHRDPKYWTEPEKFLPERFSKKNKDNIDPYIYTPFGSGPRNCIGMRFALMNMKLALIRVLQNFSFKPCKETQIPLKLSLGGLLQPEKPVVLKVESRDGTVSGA", "test": "CYP inhibition screening, recombinant enzyme (fluorescent-based) assay", "assay_type": "in vitro ADME"}, "CYP1A2": {"target": "T2, CYP1A2 (Homo sapiens, UniProt P05177)", "T2 sequence (P05177 1-516)": "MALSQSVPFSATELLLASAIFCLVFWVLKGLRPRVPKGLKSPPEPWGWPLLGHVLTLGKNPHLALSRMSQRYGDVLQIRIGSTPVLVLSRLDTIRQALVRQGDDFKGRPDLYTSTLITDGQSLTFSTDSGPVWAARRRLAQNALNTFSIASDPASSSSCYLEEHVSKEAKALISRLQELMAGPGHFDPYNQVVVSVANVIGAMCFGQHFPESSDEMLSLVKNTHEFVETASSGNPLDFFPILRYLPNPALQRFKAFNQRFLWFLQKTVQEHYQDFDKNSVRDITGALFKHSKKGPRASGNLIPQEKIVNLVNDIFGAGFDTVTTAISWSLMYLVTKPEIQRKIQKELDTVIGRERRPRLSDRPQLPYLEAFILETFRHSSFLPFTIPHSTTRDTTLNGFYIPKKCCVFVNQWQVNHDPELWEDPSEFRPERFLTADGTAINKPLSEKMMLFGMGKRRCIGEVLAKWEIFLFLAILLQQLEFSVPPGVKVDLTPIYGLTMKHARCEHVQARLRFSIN", "test": "CYP inhibition screening, recombinant enzyme (fluorescent-based) assay", "procedure": "(§1) Human recombinant CYP enzymes and fluorescence-based substrates were used to determine the IC50 values of S-(I) against CYP3A4, 2D6, 2C19, 2C9, and 1A2.\n(§2) CYP inhibition screening procedures were performed essentially according to the manufacturer's instructions (Gentest, BD Biosciences, Waltham, Mass.). Briefly, CYP enzyme inhibition was measured using human cDNA-expressed CYP3A4, 2D6, 2C19, 2C9, and 1A2 enzymes. Analogs of the model substrate coumarin were utilized for each isoenzyme.\n(§3) The concentration of acetonitrile was kept constant at 0.4%, and the reaction was carried out at 37° C. for 30 minutes.\n(§4) For IC50 determination, data was fitted using the non-linear regression equation “sigmoidal dose response, variable slope” defined as: Y=Bottom+(Top-Bottom)/(1+10̂((Log EC50−X)*HillSlope)) where X is the logarithm of concentration of the indicated compound, and Y is the response."}, "CYP2D6": {"target": "CYP2D6 (Homo sapiens, UniProt P10635)", "sequence (P10635 whole entry)": "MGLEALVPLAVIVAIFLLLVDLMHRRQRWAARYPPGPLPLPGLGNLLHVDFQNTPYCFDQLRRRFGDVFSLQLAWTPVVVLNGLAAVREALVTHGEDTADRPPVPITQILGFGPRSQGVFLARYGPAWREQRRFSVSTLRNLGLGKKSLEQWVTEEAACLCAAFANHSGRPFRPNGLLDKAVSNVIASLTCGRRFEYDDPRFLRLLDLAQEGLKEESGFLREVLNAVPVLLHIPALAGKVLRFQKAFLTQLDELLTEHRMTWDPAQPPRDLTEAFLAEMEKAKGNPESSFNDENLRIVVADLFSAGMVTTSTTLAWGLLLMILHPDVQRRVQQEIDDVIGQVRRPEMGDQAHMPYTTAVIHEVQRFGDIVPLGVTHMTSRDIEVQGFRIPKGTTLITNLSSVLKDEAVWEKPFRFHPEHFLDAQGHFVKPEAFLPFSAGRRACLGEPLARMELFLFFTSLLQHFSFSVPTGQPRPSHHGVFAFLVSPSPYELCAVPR", "test": "CYP inhibition screening, recombinant enzyme (fluorescent-based) assay", "procedure": "as §1, §2, §3, §4"}, "CYP2C19": {"target": "T3, CYP2C19 (Homo sapiens, UniProt P33261)", "T3 construct": "purchased Gentest, BD Biosciences", "T3 sequence (P33261 whole entry)": "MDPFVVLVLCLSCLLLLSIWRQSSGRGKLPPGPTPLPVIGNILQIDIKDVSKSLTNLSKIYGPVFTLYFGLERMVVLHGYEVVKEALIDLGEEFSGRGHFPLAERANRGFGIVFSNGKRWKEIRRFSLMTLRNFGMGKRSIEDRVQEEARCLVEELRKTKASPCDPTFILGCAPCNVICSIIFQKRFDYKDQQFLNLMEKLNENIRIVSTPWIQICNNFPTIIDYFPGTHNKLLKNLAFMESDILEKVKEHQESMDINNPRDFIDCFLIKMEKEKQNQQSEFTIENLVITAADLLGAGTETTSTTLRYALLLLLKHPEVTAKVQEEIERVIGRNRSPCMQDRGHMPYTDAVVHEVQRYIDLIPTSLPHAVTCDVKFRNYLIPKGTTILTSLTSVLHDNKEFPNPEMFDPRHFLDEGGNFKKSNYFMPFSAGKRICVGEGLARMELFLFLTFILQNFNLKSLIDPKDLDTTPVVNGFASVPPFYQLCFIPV", "test": "CYP inhibition screening, recombinant enzyme (fluorescent-based) assay", "assay_type": "in vitro ADME", "conditions": "for Inhibition of CYP2C19 activity (in words): human, human cDNA-expressed (recombinant) CYP2C19, 30 min"}, "ER-α": {"target": "T4, ER-α (Rattus norvegicus, UniProt P06211)", "T4 construct": "expressed in transfected cells; host or cells: HEK-293", "T4 sequence (P06211 1-600)": "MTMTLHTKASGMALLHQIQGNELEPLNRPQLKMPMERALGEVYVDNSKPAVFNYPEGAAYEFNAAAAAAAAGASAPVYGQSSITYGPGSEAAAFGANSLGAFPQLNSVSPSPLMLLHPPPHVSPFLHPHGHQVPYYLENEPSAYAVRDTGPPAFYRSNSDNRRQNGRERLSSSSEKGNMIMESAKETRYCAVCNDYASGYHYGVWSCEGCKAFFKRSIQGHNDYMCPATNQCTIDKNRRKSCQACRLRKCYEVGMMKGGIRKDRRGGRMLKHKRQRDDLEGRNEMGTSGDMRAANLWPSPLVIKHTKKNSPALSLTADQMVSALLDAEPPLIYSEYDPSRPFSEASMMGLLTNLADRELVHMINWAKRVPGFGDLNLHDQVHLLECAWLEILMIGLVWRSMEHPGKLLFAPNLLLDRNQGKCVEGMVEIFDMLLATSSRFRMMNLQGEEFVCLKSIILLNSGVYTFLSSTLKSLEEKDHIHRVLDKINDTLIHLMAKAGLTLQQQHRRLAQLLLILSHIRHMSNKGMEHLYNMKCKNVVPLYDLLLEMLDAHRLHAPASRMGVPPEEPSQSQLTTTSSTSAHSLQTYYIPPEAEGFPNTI", "test": "Transient transfection luciferase transactivation assay in HEK-293 cells", "assay_type": "cell-based", "conditions": "for ER-α transactivation, agonist mode (in words): up to the highest tested concentration (1 μM); for Inhibition of estradiol-induced ER-α activity, antagonist mode (in words): with 1 nM estradiol"}, "ER-β": {"target": "T5, ER-β (Rattus norvegicus, UniProt Q62986)", "T5 construct": "expressed in transfected cells; host or cells: HEK-293", "T5 sequence (Q62986 whole entry)": "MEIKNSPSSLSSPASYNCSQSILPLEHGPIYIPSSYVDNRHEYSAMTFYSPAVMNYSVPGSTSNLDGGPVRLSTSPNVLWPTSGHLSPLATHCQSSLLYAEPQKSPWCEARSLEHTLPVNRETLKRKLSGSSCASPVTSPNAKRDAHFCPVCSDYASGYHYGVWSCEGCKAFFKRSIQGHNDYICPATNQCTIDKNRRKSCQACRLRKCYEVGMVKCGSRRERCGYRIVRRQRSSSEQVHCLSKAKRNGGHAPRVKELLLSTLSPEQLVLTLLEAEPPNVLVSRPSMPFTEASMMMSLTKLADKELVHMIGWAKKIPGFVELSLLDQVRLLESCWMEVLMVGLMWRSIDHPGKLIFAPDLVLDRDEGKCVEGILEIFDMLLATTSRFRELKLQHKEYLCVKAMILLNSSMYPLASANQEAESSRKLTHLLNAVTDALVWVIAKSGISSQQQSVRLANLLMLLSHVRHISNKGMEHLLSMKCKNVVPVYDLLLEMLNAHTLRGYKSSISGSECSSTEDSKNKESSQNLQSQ", "test": "Transient transfection luciferase transactivation assay in HEK-293 cells", "assay_type": "cell-based", "conditions": "for ER-β transactivation, agonist mode (in words): up to the highest tested concentration (1 μM); for Inhibition of estradiol-induced ER-β activity, antagonist mode (in words): with 1 nM estradiol"}, "MR": {"target": "T6, MR (Rattus norvegicus, UniProt P22199)", "T6 construct": "expressed in transfected cells; host or cells: HEK-293", "T6 sequence (P22199 1-981)": "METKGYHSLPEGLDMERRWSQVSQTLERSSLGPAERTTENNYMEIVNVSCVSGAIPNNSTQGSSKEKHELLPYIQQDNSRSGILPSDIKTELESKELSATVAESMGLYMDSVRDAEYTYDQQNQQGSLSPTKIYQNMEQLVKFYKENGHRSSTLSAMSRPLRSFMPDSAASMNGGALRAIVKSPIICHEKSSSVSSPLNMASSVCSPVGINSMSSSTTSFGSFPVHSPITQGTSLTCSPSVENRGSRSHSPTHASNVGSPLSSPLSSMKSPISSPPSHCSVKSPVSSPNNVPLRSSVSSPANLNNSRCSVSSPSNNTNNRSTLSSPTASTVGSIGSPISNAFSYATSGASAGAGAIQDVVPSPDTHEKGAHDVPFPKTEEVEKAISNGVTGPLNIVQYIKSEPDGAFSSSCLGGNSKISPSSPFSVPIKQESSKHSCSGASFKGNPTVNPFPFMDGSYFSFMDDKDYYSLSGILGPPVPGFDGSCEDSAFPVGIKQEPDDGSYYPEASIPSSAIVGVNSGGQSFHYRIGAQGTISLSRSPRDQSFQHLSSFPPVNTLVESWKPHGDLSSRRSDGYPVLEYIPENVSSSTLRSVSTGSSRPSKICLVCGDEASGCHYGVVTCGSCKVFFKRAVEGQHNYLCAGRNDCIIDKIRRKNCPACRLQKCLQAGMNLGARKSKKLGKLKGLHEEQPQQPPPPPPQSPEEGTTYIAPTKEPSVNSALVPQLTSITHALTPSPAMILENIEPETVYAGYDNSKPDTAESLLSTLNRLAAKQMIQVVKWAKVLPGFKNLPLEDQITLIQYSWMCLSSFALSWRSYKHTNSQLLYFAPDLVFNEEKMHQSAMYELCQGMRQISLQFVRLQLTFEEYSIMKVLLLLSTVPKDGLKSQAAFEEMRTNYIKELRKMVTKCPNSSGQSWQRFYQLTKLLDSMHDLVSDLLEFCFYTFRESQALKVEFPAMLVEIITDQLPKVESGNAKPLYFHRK", "test": "Transient transfection luciferase transactivation assay in HEK-293 cells", "assay_type": "cell-based", "conditions": "for MR-mediated transactivation, agonist mode (in words): all tested concentrations; for Inhibition of aldosterone-induced MR-mediated transactivation, antagonist mode (in words): with 1 nM aldosterone"}}, "data": [{"smiles": "C[C@](O)(COc1ccc(F)cc1)C(=O)Nc1ccc(C#N)c(C(F)(F)F)c1", "note": "[S-(III)]", "values": [{"measurement": "IC50", "setting": "CYP3A4", "value": "> 20", "unit": "µM"}, {"measurement": "IC50", "setting": "CYP1A2", "value": "> 20", "unit": "µM"}, {"measurement": "IC50", "setting": "CYP2D6", "value": "> 20", "unit": "µM"}, {"measurement": "IC50", "setting": "CYP2C19", "value": 0.1, "unit": "µM"}, {"measurement": "Inhibition of CYP2C19 activity (in words)", "setting": "CYP2C19", "value": "moderate inhibition"}, {"measurement": "ER-α transactivation, agonist mode (in words)", "setting": "ER-α", "value": "failed to activate"}, {"measurement": "Inhibition of estradiol-induced ER-α activity, antagonist mode (in words)", "setting": "ER-α", "value": "failed to alter"}, {"measurement": "ER-β transactivation, agonist mode (in words)", "setting": "ER-β", "value": "failed to activate"}, {"measurement": "Inhibition of estradiol-induced ER-β activity, antagonist mode (in words)", "setting": "ER-β", "value": "failed to alter"}, {"measurement": "MR-mediated transactivation, agonist mode (in words)", "setting": "MR", "value": "did not induce"}, {"measurement": "Inhibition of aldosterone-induced MR-mediated transactivation, antagonist mode (in words)", "setting": "MR", "value": "not inhibited"}]}, {"smiles": "C[C@](O)(COc1ccc(Cl)cc1)C(=O)Nc1ccc(C#N)c(C(F)(F)F)c1", "note": "[S-(II)]", "values": [{"measurement": "IC50", "setting": "CYP3A4", "value": "> 20", "unit": "µM"}, {"measurement": "IC50", "setting": "CYP1A2", "value": "> 20", "unit": "µM"}, {"measurement": "IC50", "setting": "CYP2D6", "value": "> 20", "unit": "µM"}, {"measurement": "IC50", "setting": "CYP2C19", "value": 0.1, "unit": "µM"}, {"measurement": "Inhibition of CYP2C19 activity (in words)", "setting": "CYP2C19", "value": "moderate inhibition"}, {"measurement": "ER-α transactivation, agonist mode (in words)", "setting": "ER-α", "value": "failed to activate"}, {"measurement": "Inhibition of estradiol-induced ER-α activity, antagonist mode (in words)", "setting": "ER-α", "value": "failed to alter"}, {"measurement": "ER-β transactivation, agonist mode (in words)", "setting": "ER-β", "value": "failed to activate"}, {"measurement": "Inhibition of estradiol-induced ER-β activity, antagonist mode (in words)", "setting": "ER-β", "value": "failed to alter"}, {"measurement": "MR-mediated transactivation, agonist mode (in words)", "setting": "MR", "value": "did not induce"}, {"measurement": "Inhibition of aldosterone-induced MR-mediated transactivation, antagonist mode (in words)", "setting": "MR", "value": "not inhibited"}]}, {"smiles": "C[C@](O)(COc1ccc(C#N)cc1)C(=O)Nc1ccc(C#N)c(Cl)c1", "note": "[S-(I), (S)—N-(3-chloro-4-cyanophenyl)-3-(4-cyanophenoxy)-2-hydroxy-2-methylpropanamide]", "values": [{"measurement": "IC50", "setting": "CYP3A4", "value": "> 20", "unit": "µM"}, {"measurement": "IC50", "setting": "CYP1A2", "value": "> 20", "unit": "µM"}, {"measurement": "IC50", "setting": "CYP2D6", "value": "> 20", "unit": "µM"}, {"measurement": "IC50", "setting": "CYP2C19", "value": "> 20", "unit": "µM"}, {"measurement": "ER-α transactivation, agonist mode (in words)", "setting": "ER-α", "value": "failed to activate"}, {"measurement": "Inhibition of estradiol-induced ER-α activity, antagonist mode (in words)", "setting": "ER-α", "value": "failed to alter"}, {"measurement": "ER-β transactivation, agonist mode (in words)", "setting": "ER-β", "value": "failed to activate"}, {"measurement": "Inhibition of estradiol-induced ER-β activity, antagonist mode (in words)", "setting": "ER-β", "value": "failed to alter"}, {"measurement": "MR-mediated transactivation, agonist mode (in words)", "setting": "MR", "value": "failed to activate"}, {"measurement": "Inhibition of aldosterone-induced MR-mediated transactivation, antagonist mode (in words)", "setting": "MR", "value": "failed to alter"}]}]}
